# Reference: paper PMC8657855 (International Journal of Molecular Sciences, 2021)
# Tests used:
# Assay in all cases: microbe, parasite or virus in culture
# [1] = test system: Xanthomonas oryzae pv. oryzicola Xoc; settings: read-out: EC50 (mg/L) Xoc
# [2] = test system: Xanthomonas oryzae pv. oryzicola Xoc; settings: for inhibition at 10 µg/mL: read-out: Inhibition (%) 10 (mg/L); for inhibition at 50 µg/mL: read-out: Inhibition (%) 50 (mg/L)
# [3] = test system: Xanthomonas oryzae pv. oryzae Xoo; settings: for inhibition at 10 µg/mL: read-out: Inhibition (%) 10 (mg/L); for inhibition at 50 µg/mL: read-out: Inhibition (%) 50 (mg/L)
# [4] = test system: Xanthomonas oryzae pv. oryzae Xoo; settings: read-out: EC50 (mg/L) Xoo
smiles,measurement,setting,value
"S=c1[nH]nc(NCNc2n[nH]c(=S)s2)s1 [BT, Bismerthiazol]",EC50,[1],105.9 ± 0.56 mg/L
same,inhibition at 10 µg/mL,[2],7 ± 1.7%
same,inhibition at 50 µg/mL,[2],27 ± 1.7%
same,inhibition at 10 µg/mL,[3],2.5 ± 1.6%
same,inhibition at 50 µg/mL,[3],27.4 ± 5%
same,EC50,[4],83.1 ± 8.07 mg/L
"CS(=O)(=O)c1nnc(CNC(=O)C=Cc2cccs2)o1 [compound 1, N-((5-(methylsulfonyl)-1,3,4-oxadiazol-2-yl)methyl)-3-(thiophen-2-yl)acrylamide]",EC50,[1],0.86 ± 0.08 mg/L
same,inhibition at 10 µg/mL,[2],97.3 ± 1.8%
same,inhibition at 50 µg/mL,[2],98.3 ± 0.9%
same,inhibition at 10 µg/mL,[3],96.2 ± 1.5%
same,inhibition at 50 µg/mL,[3],97.6 ± 1.2%
same,EC50,[4],0.68 ± 0.07 mg/L
"CCS(=O)(=O)c1nnc(CNC(=O)C=Cc2cccs2)o1 [compound 2, N-((5-(ethylsulfonyl)-1,3,4-oxadiazol-2-yl)methyl)-3-(thiophen-2-yl)acrylamide]",EC50,[1],3.41 ± 0.05 mg/L
same,inhibition at 10 µg/mL,[2],96.9 ± 0.3%
same,inhibition at 50 µg/mL,[2],97.5 ± 0.8%
same,inhibition at 10 µg/mL,[3],85 ± 4.1%
same,inhibition at 50 µg/mL,[3],90.6 ± 8.6%
same,EC50,[4],0.72 ± 0.07 mg/L
"CS(=O)(=O)c1nnc(CNC(=O)c2ccc(Cl)s2)o1 [compound 3, 5-chloro-N-((5-(methylsulfonyl)-1,3,4-oxadiazol-2-yl)methyl)thiophene-2-car boxamide]",EC50,[1],1.06 ± 0.04 mg/L
same,inhibition at 10 µg/mL,[2],98 ± 0.2%
same,inhibition at 50 µg/mL,[2],98.3 ± 1.3%
same,inhibition at 10 µg/mL,[3],98.6 ± 0.8%
same,inhibition at 50 µg/mL,[3],95.8 ± 2.6%
same,EC50,[4],0.53 ± 0.07 mg/L
"CCS(=O)(=O)c1nnc(CNC(=O)c2ccc(Cl)s2)o1 [compound 4, 5-chloro-N-((5-(ethylsulfonyl)-1,3,4-oxadiazol-2-yl)methyl)thiophene-2-carb oxamide]",EC50,[1],0.83 ± 0.01 mg/L
same,inhibition at 10 µg/mL,[2],96.9 ± 1.1%
same,inhibition at 50 µg/mL,[2],99 ± 0.2%
same,inhibition at 10 µg/mL,[3],98.3 ± 1%
same,inhibition at 50 µg/mL,[3],97.9 ± 1.5%
same,EC50,[4],0.45 ± 0.04 mg/L
"CS(=O)(=O)c1nnc(CNC(=O)c2ccc(Br)o2)o1 [compound 5, 5-bromo-N-((5-(methylsulfonyl)-1,3,4-oxadiazol-2-yl)methyl)furan-2-carbox amide]",EC50,[1],2.59 ± 0.05 mg/L
same,inhibition at 10 µg/mL,[2],99.3 ± 0.1%
same,inhibition at 50 µg/mL,[2],97.8 ± 2%
same,inhibition at 10 µg/mL,[3],96.3 ± 2.5%
same,inhibition at 50 µg/mL,[3],96.6 ± 0.4%
same,EC50,[4],0.48 ± 0.01 mg/L
"CS(=O)(=O)c1nnc(CNC(=O)c2ncc(C(F)(F)F)cc2Cl)o1 [compound 6, 3-chloro-N-((5-(methylsulfonyl)-1,3,4-oxadiazol-2-yl)methyl)-5-(trifluoromethyl)picolinamide]",EC50,[1],3.31 ± 0.09 mg/L
same,inhibition at 10 µg/mL,[2],95.5 ± 0.8%
same,inhibition at 50 µg/mL,[2],99.3 ± 0.2%
same,inhibition at 10 µg/mL,[3],94.8 ± 1.8%
same,inhibition at 50 µg/mL,[3],99.7 ± 0.2%
same,EC50,[4],3.49 ± 0.07 mg/L
"CCS(=O)(=O)c1nnc(CNC(=O)c2ncc(C(F)(F)F)cc2Cl)o1 [compound 7, 3-chloro-N-((5-(ethylsulfonyl)-1,3,4-oxadiazol-2-yl)methyl)-5-(trifluoromethyl)picolinamide]",EC50,[1],7.58 ± 0.27 mg/L
same,inhibition at 10 µg/mL,[2],40.1 ± 1.3%
same,inhibition at 50 µg/mL,[2],99.6 ± 0.2%
same,inhibition at 10 µg/mL,[3],48.1 ± 0.8%
same,inhibition at 50 µg/mL,[3],99.8 ± 0.1%
same,EC50,[4],7.45 ± 0.16 mg/L
"CS(=O)(=O)c1nnc(CNC(=O)C=Cc2ccccc2)o1 [compound 8, N-((5-(methylsulfonyl)-1,3,4-oxadiazol-2-yl)methyl)cinnamamide]",EC50,[1],0.7 ± 0.01 mg/L
same,inhibition at 10 µg/mL,[2],98.8 ± 0.7%
same,inhibition at 50 µg/mL,[2],92.3 ± 7.3%
same,inhibition at 10 µg/mL,[3],99.7 ± 0.3%
same,inhibition at 50 µg/mL,[3],98.9 ± 0.5%
same,EC50,[4],0.73 ± 0.08 mg/L
"CCS(=O)(=O)c1nnc(CNC(=O)C=Cc2ccccc2)o1 [compound 9, N-((5-(ethylsulfonyl)-1,3,4-oxadiazol-2-yl)methyl)cinnamamide]",EC50,[1],0.78 ± 0.01 mg/L
same,inhibition at 10 µg/mL,[2],97.1 ± 1.6%
same,inhibition at 50 µg/mL,[2],98 ± 1.7%
same,inhibition at 10 µg/mL,[3],100%
same,inhibition at 50 µg/mL,[3],97.6 ± 1.4%
same,EC50,[4],0.89 ± 0.12 mg/L
"CS(=O)(=O)c1nnc(CNC(=O)C=Cc2ccc(F)cc2)o1 [compound 10, 3-(4-fluorophenyl)-N-((5-(methylsulfonyl)-1,3,4-oxadiazol-2-yl)methyl)acrylamide]",EC50,[1],0.53 ± 0.01 mg/L
same,inhibition at 10 µg/mL,[2],99 ± 0.8%
same,inhibition at 50 µg/mL,[2],95.6 ± 1%
same,inhibition at 10 µg/mL,[3],99 ± 0.3%
same,inhibition at 50 µg/mL,[3],99.5 ± 0.1%
same,EC50,[4],0.36 ± 0.03 mg/L
"CCS(=O)(=O)c1nnc(CNC(=O)C=Cc2ccc(F)cc2)o1 [compound 11, N-((5-(ethylsulfonyl)-1,3,4-oxadiazol-2-yl)methyl)-3-(4-fluorophenyl)acrylamide]",EC50,[1],10.8 ± 2.91 mg/L
same,inhibition at 10 µg/mL,[2],50.6 ± 2.1%
same,inhibition at 50 µg/mL,[2],99 ± 1.3%
same,inhibition at 10 µg/mL,[3],98.8 ± 0.1%
same,inhibition at 50 µg/mL,[3],99.2 ± 0.4%
same,EC50,[4],0.72 ± 0.05 mg/L
"Cc1ccc(C=CC(=O)NCc2nnc(S(C)(=O)=O)o2)cc1 [compound 12, N-((5-(methylsulfonyl)-1,3,4-oxadiazol-2-yl)methyl)-3-(p-tolyl)acrylamide]",EC50,[1],0.64 ± 0.05 mg/L
same,inhibition at 10 µg/mL,[2],96.9 ± 2.3%
same,inhibition at 50 µg/mL,[2],95.6 ± 2.1%
same,inhibition at 10 µg/mL,[3],99.5 ± 0.1%
same,inhibition at 50 µg/mL,[3],99.8 ± 0.2%
same,EC50,[4],0.52 ± 0.04 mg/L
"CCS(=O)(=O)c1nnc(CNC(=O)C=Cc2ccc(C)cc2)o1 [compound 13, N-((5-(ethylsulfonyl)-1,3,4-oxadiazol-2-yl)methyl)-3-(p-tolyl)acrylamide]",EC50,[1],0.88 ± 0.03 mg/L
same,inhibition at 10 µg/mL,[2],98.1 ± 0.6%
same,inhibition at 50 µg/mL,[2],95.8 ± 1.2%
same,inhibition at 10 µg/mL,[3],99.5 ± 0.1%
same,inhibition at 50 µg/mL,[3],99.2 ± 0.2%
same,EC50,[4],0.72 ± 0.07 mg/L
"CS(=O)(=O)c1nnc(CNC(=O)C=Cc2ccc(Cl)cc2)o1 [compound 14, 3-(4-chlorophenyl)-N-((5-(methylsulfonyl)-1,3,4-oxadiazol-2-yl)methyl)acrylamide]",EC50,[1],0.61 ± 0.03 mg/L
same,inhibition at 10 µg/mL,[2],98.8 ± 0.7%
same,inhibition at 50 µg/mL,[2],98.2 ± 1.1%
same,inhibition at 10 µg/mL,[3],97.6 ± 0.8%
same,EC50,[4],0.43 ± 0.06 mg/L
"CCS(=O)(=O)c1nnc(CNC(=O)C=Cc2ccc(Cl)cc2)o1 [compound 15, 3-(4-chlorophenyl)-N-((5-(ethylsulfonyl)-1,3,4-oxadiazol-2-yl)methyl)acrylamide]",EC50,[1],1.45 ± 0.05 mg/L
same,inhibition at 10 µg/mL,[2],97.9 ± 0.4%
same,inhibition at 50 µg/mL,[2],98.9 ± 0.3%
same,inhibition at 10 µg/mL,[3],98.1 ± 0.6%
same,inhibition at 50 µg/mL,[3],98.3 ± 0.2%
same,EC50,[4],0.43 ± 0.04 mg/L
"CS(=O)(=O)c1nnc(CNC(=O)C=Cc2ccc(Cl)cc2Cl)o1 [compound 16, 3-(2,4-dichlorophenyl)-N-((5-(methylsulfonyl)-1,3,4-oxadiazol-2-yl)methyl)a crylamide]",EC50,[1],1.15 ± 0.05 mg/L
same,inhibition at 10 µg/mL,[2],99.2 ± 0.7%
same,inhibition at 50 µg/mL,[2],97.7 ± 0.7%
same,inhibition at 10 µg/mL,[3],98.9 ± 0.3%
same,inhibition at 50 µg/mL,[3],99 ± 0.4%
same,EC50,[4],0.42 ± 0.05 mg/L
"CC(=CC(=O)NCc1nnc(S(C)(=O)=O)o1)c1ccccc1 [compound 17, N-((5-(methylsulfonyl)-1,3,4-oxadiazol-2-yl)methyl)-3-phenylbut-2-enamide]",EC50,[1],5.21 ± 0.11 mg/L
same,inhibition at 10 µg/mL,[2],67.7 ± 0.9%
same,inhibition at 50 µg/mL,[2],94.7 ± 0.9%
same,inhibition at 10 µg/mL,[3],99.4 ± 0.5%
same,inhibition at 50 µg/mL,[3],99.7 ± 0.4%
same,EC50,[4],0.54 ± 0.04 mg/L
"Cc1ccc(C(=O)NCc2nnc(S(C)(=O)=O)o2)c(C)c1 [compound 18, 2,4-dimethyl-N-((5-(methylsulfonyl)-1,3,4-oxadiazol-2-yl)methyl)benzamide]",EC50,[1],1.74 ± 0.11 mg/L
same,inhibition at 10 µg/mL,[2],98.9 ± 1%
same,inhibition at 50 µg/mL,[2],96.9 ± 0.2%
same,inhibition at 10 µg/mL,[3],98.8 ± 0.2%
same,inhibition at 50 µg/mL,[3],98.2 ± 1.4%
same,EC50,[4],0.69 ± 0.04 mg/L
"CCS(=O)(=O)c1nnc(CNC(=O)c2ccc(C)cc2C)o1 [compound 19, N-((5-(ethylsulfonyl)-1,3,4-oxadiazol-2-yl)methyl)-2,4-dimethylbenzamide]",EC50,[1],1.69 ± 0.18 mg/L
same,inhibition at 10 µg/mL,[2],98.2 ± 1%
same,inhibition at 50 µg/mL,[2],95.8 ± 0.8%
same,inhibition at 10 µg/mL,[3],97.2 ± 1.4%
same,inhibition at 50 µg/mL,[3],98.1 ± 0.8%
same,EC50,[4],1.08 ± 0.11 mg/L
"Cc1ccc(C(=O)NCc2nnc(S(C)(=O)=O)o2)cc1 [compound 20, 4-methyl-N-((5-(methylsulfonyl)-1,3,4-oxadiazol-2-yl)methyl)benzamide]",EC50,[1],1.66 ± 0.21 mg/L
same,inhibition at 10 µg/mL,[2],67.8 ± 6.8%
same,inhibition at 50 µg/mL,[2],99 ± 0.9%
same,inhibition at 10 µg/mL,[3],99.4 ± 0.3%
same,inhibition at 50 µg/mL,[3],99.6 ± 0.3%
same,EC50,[4],0.63 ± 0.06 mg/L
"CS(=O)(=O)c1nnc(CNC(=O)c2c(F)cccc2F)o1 [compound 21, 2,6-difluoro-N-((5-(methylsulfonyl)-1,3,4-oxadiazol-2-yl)methyl)benzamide]",EC50,[1],1.51 ± 0.02 mg/L
same,inhibition at 10 µg/mL,[2],97.1 ± 2.3%
same,inhibition at 50 µg/mL,[2],98.4 ± 1.1%
same,inhibition at 10 µg/mL,[3],97.4 ± 0.3%
same,inhibition at 50 µg/mL,[3],96.3 ± 0.4%
same,EC50,[4],0.65 ± 0.05 mg/L
"CS(=O)(=O)c1nnc(CNC(=O)c2ccc(C(F)(F)F)cc2)o1 [compound 22, N-((5-(methylsulfonyl)-1,3,4-oxadiazol-2-yl)methyl)-4-(trifluoromethyl)benz amide]",EC50,[1],1.7 ± 0.09 mg/L
same,inhibition at 10 µg/mL,[2],90.3 ± 5.5%
same,inhibition at 50 µg/mL,[2],99.3 ± 0.3%
same,inhibition at 10 µg/mL,[3],99.7 ± 0.2%
same,inhibition at 50 µg/mL,[3],99.9 ± 0.1%
same,EC50,[4],0.72 ± 0.05 mg/L
"CS(=O)(=O)c1nnc(CNC(=O)c2ccc(F)cc2F)o1 [compound 23, 2,4-difluoro-N-((5-(methylsulfonyl)-1,3,4-oxadiazol-2-yl)methyl)benzamide]",EC50,[1],7.41 ± 1.3 mg/L
same,inhibition at 10 µg/mL,[2],69.6 ± 1.8%
same,inhibition at 50 µg/mL,[2],99.5 ± 0.4%
same,inhibition at 10 µg/mL,[3],95.7 ± 1.9%
same,inhibition at 50 µg/mL,[3],95.4 ± 0.4%
same,EC50,[4],0.8 ± 0.09 mg/L
"CS(=O)(=O)c1nnc(CNC(=O)c2ccc(Cl)cc2)o1 [compound 24, 4-chloro-N-((5-(methylsulfonyl)-1,3,4-oxadiazol-2-yl)methyl)benzamide]",EC50,[1],0.9 ± 0.04 mg/L
same,inhibition at 10 µg/mL,[2],96.9 ± 0.4%
same,inhibition at 50 µg/mL,[2],97.8 ± 2.7%
same,inhibition at 10 µg/mL,[3],99.9 ± 0.1%
same,inhibition at 50 µg/mL,[3],99.6 ± 0.2%
same,EC50,[4],0.4 ± 0.03 mg/L
"CCS(=O)(=O)c1nnc(CNC(=O)c2ccc(Cl)cc2)o1 [compound 25, 4-chloro-N-((5-(ethylsulfonyl)-1,3,4-oxadiazol-2-yl)methyl)benzamide]",EC50,[1],0.94 ± 0.09 mg/L
same,inhibition at 10 µg/mL,[2],99.6 ± 0.3%
same,inhibition at 50 µg/mL,[2],98.8 ± 1%
same,inhibition at 50 µg/mL,[3],99.2 ± 0.3%
same,EC50,[4],0.82 ± 0.05 mg/L
